# Data reported in PubChem BioAssay (NCI).
#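 Step 1: Grow cells in 96-well plates. Step 2: Expose to compound for 48 hours at 5 concentrations. Step 3: Interpolate endpoints linearly; if unreached, use highest concentration. Abbreviation: GI50, concentration required for 50% inhibition of growth. TGI: total growth inhibition.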
# Test system: HCT-15 colon
# Experiment: inhibition of tumour cell growth, NCI panel, 48 h
SMILES,GI50 [µM],TGI [µM]
O=C1c2ccccc2-c2c1c1ccccc1c(=O)n2CCNCCCNCCn1c2c(c3ccccc3c1=O)C(=O)c1ccccc1-2,0.0221,0.334
O=C(c1ccccc1)[C@H]1Nc2cnccc2C2c3ccccc3CC21 (stereo partly drawn),–,26.9
CN(C)c1nc(-c2cccs2)n2nc(-c3ccc(Cl)cc3)cc2n1,> 100,> 100
COc1cc(/C=C2\CC3C4CC=C5CC(N6CCCC6)CC[C@]5(C)C4CC[C@]3(C)C2OC(C)=O)ccc1OCCN1CCCC1 (stereo partly drawn),1.52,3.4
COc1ccc(C(=O)C(C(=O)CCC(=O)Nc2cccc(C(F)(F)F)c2)c2ccccc2)cc1 (stereo not drawn),–,> 100
O=C1c2ccccc2-c2cccc3ccc(Cc4ccccc4)c1c23,–,> 100
COC(=O)/C(=N\NC(=S)NN)C(C(=O)C(=O)Nc1ccccc1C(N)=O)c1nc2ccccc2[nH]c1=O (stereo not drawn),–,> 100
CC1CCCC(C(=O)/C(=C/c2cccc(Cl)c2)C(=O)C(=O)O)C1 (stereo not drawn),–,28.2
CC(=O)c1c(C)n([O-])c2cc(C)c(C)cc2[n+]1=O,–,> 100
CCCS(=O)(=O)c1nc(NC2CC2)cc(-c2ccc3c(ccn3C3CC(C)(C)NC(C)(C)C3)c2)n1,1.57,3.12
N#CC(C#N)=Cc1cccc(Oc2ccccc2)c1,–,> 100
Cc1ncc([N+](=O)[O-])n1CCNC(=O)CCCCn1ccnc1[N+](=O)[O-],–,> 100
COc1ccc(/C=C/C(=O)c2sc(-n3nc(-c4ccccc4)cc3-c3ccccc3)nc2C)cc1OC,–,> 100
COC(=O)c1c(O)ccc2[nH]c(C)c(C#N)c12,42.1,> 100
NC(CCSCC(F)F)C(=O)O (stereo not drawn),–,> 100
COC(=O)NC/C=C\c1nc(CC/C=C\C(=O)OC2CC3CC(=O)O[C@@H](/C=C/CC(C)C)C[C@@H]4CCC(C)C(C[C@@H](OC)CC(C2)O3)O4)co1 (stereo partly drawn),< 0.01,20.7
CC1(C)OC(=O)C=C([O-])O1.CC1(C)OC(=O)C=C([O-])O1.O=c1c(O)c(-c2ccc([O-])cc2[O-])oc2cc(O)cc(O)c12.[Ti+4],–,> 100

# Test system: KM12 colon
# Experiment: inhibition of tumour cell growth, NCI panel, 48 h
SMILES,TGI [µM],GI50 [µM]
CN(C)C(=S)/N=c1\ss/c(=N\S(=O)(=O)c2ccccc2)n1-c1ccccc1,> 100,–
N#Cc1c(N)c(C(=O)O)nn(-c2cccc(C(F)(F)F)c2)c1=O,> 100,–
CCOC(=O)Cc1nc(/C(C#N)=C/c2ccco2)[nH]c(=O)c1C#N,> 100,–
CC1=Nc2c(ccc3c2C(=O)c2ccccc2C3=O)NC(c2ccncc2)C1 (stereo not drawn),> 100,–
Cc1ccc(C(=O)CC(Sc2cccc(Cl)c2Cl)c2ccc(Cl)cc2)cc1C (stereo not drawn),34.1,15.4
Oc1c(Br)cc(CN(Cc2cc(Br)c(O)c(Br)c2)C2CCCCC2)cc1Br,> 100,–
COc1cc(/C=C\c2ccc(O)cc2)cc(OC)c1OC,> 100,–
C=C(COC(C)=O)CC(/C=C(\C)CCC=C(C)C)OC(C)=O (stereo not drawn),> 100,–
Cc1sc(C)c(-c2ccc(CO)o2)c1-c1ccc(CO)o1,> 100,> 83.5
CC1(C)CCc2cc3c(cc2O1)OCCC3=O,> 100,–
Oc1c2c(c(O)c3ccccc13)=N[C@@H](c1ccccc1)[C@H](c1ccccc1)N=2,> 100,–
O=C(Nc1cc(-c2ccccc2)[nH]n1)c1ccc(Cl)cc1,> 100,3.28
C=C1CC(COc2cc(Cl)nc(N)n2)C1,–,25.5
CCOc1cccc2nc3cccc(C(=O)NCCN(C)C)c3nc12,9.36,–
Cc1cc(C)nc(NS(=O)(=O)c2ccc(Nc3c4ccccc4nc4c(C(=O)N5CCN(CCOS(C)(=O)=O)CC5)ccc(Cl)c34)cc2)n1,> 100,–
Clc1cc(Cl)c2c(Cl)cc(Cl)c3c2c1N=S=N3,> 100,–
CN1CCN(C)C1c1cccc(C2N(C)CCN2C)c1,> 100,–
CC(=O)OCCOCBr,> 100,–
O=C1c2ccccc2-c2c1c1ccccc1c(=O)n2CCNCCCNCCn1c2c(c3ccccc3c1=O)C(=O)c1ccccc1-2,–,0.0193
CC(O)CN1C(=O)NC(Cc2ccccc2)C1=O (stereo not drawn),> 100,–

SMILES,TGI [µM],GI50 [µM]
O=C(c1ccccc1)[C@H]1Nc2cnccc2C2c3ccccc3CC21 (stereo partly drawn),> 61.3,–
Cn1c(N)nc2c(nc(OCc3ccccc3)n2C2OC(CO)C(O)C2O)c1=O (stereo not drawn),> 100,–
CN(C)c1nc(-c2cccs2)n2nc(-c3ccc(Cl)cc3)cc2n1,> 100,> 100
COc1cc(/C=C2\CC3C4CC=C5CC(N6CCCC6)CC[C@]5(C)C4CC[C@]3(C)C2OC(C)=O)ccc1OCCN1CCCC1 (stereo partly drawn),5.99,2.27
COc1ccc(C(=O)C(C(=O)CCC(=O)Nc2cccc(C(F)(F)F)c2)c2ccccc2)cc1 (stereo not drawn),> 100,–
NC1=NC(=O)C(CC(=O)Nc2ccc([N+](=O)[O-])cc2[N+](=O)[O-])S1 (stereo not drawn),> 100,–
O=C1c2ccccc2-c2cccc3ccc(Cc4ccccc4)c1c23,> 100,–
COC(=O)/C(=N\NC(=S)NN)C(C(=O)C(=O)Nc1ccccc1C(N)=O)c1nc2ccccc2[nH]c1=O (stereo not drawn),> 100,–
CC/C=C\C/C=C\C1CC(=O)NCCCNCCCCN1 (stereo not drawn),> 100,–
CC1CCCC(C(=O)/C(=C/c2cccc(Cl)c2)C(=O)C(=O)O)C1 (stereo not drawn),30.6,–
CC(=O)c1c(C)n([O-])c2cc(C)c(C)cc2[n+]1=O,> 100,–
CCCS(=O)(=O)c1nc(NC2CC2)cc(-c2ccc3c(ccn3C3CC(C)(C)NC(C)(C)C3)c2)n1,3.67,1.83
N#CC(C#N)=Cc1cccc(Oc2ccccc2)c1,53.2,–
Cc1ncc([N+](=O)[O-])n1CCNC(=O)CCCCn1ccnc1[N+](=O)[O-],> 100,–
COc1ccc(/C=C/C(=O)c2sc(-n3nc(-c4ccccc4)cc3-c3ccccc3)nc2C)cc1OC,> 100,–
COC(=O)c1c(O)ccc2[nH]c(C)c(C#N)c12,> 100,39.5
NC(CCSCC(F)F)C(=O)O (stereo not drawn),> 100,–
COC(=O)NC/C=C\c1nc(CC/C=C\C(=O)OC2CC3CC(=O)O[C@@H](/C=C/CC(C)C)C[C@@H]4CCC(C)C(C[C@@H](OC)CC(C2)O3)O4)co1 (stereo partly drawn),> 100,2.67
CC1(C)OC(=O)C=C([O-])O1.CC1(C)OC(=O)C=C([O-])O1.O=c1c(O)c(-c2ccc([O-])cc2[O-])oc2cc(O)cc(O)c12.[Ti+4],> 100,–

# Test system: LOX IMVI melanoma
# Experiment: inhibition of tumour cell growth, NCI panel, 48 h
SMILES,TGI [µM],GI50 [µM]
CN(C)C(=S)/N=c1\ss/c(=N\S(=O)(=O)c2ccccc2)n1-c1ccccc1,> 100,–
N#Cc1c(N)c(C(=O)O)nn(-c2cccc(C(F)(F)F)c2)c1=O,> 100,–
CCOC(=O)Cc1nc(/C(C#N)=C/c2ccco2)[nH]c(=O)c1C#N,> 100,–
CC1=Nc2c(ccc3c2C(=O)c2ccccc2C3=O)NC(c2ccncc2)C1 (stereo not drawn),> 100,–
Cc1ccc(C(=O)CC(Sc2cccc(Cl)c2Cl)c2ccc(Cl)cc2)cc1C (stereo not drawn),32.2,13.5
Oc1c(Br)cc(CN(Cc2cc(Br)c(O)c(Br)c2)C2CCCCC2)cc1Br,> 100,–
COc1cc(/C=C\c2ccc(O)cc2)cc(OC)c1OC,> 100,–
C=C(COC(C)=O)CC(/C=C(\C)CCC=C(C)C)OC(C)=O (stereo not drawn),> 100,–
Cc1sc(C)c(-c2ccc(CO)o2)c1-c1ccc(CO)o1,> 100,94.3
CC1(C)CCc2cc3c(cc2O1)OCCC3=O,> 100,–
Oc1c2c(c(O)c3ccccc13)=N[C@@H](c1ccccc1)[C@H](c1ccccc1)N=2,> 100,–
c1cc[c]([Sn]([S]c2cccc3cccnc23)([c]2ccccc2)[c]2ccccc2)cc1,0.0304,0.0159
O=C1CCn2c([nH]c3cccc4cccc2c43)=N1,> 100,–
O=C(Nc1cc(-c2ccccc2)[nH]n1)c1ccc(Cl)cc1,> 100,9.23
CCOc1cccc2nc3cccc(C(=O)NCCN(C)C)c3nc12,2.11,–
Clc1cc(Cl)c2c(Cl)cc(Cl)c3c2c1N=S=N3,> 100,–
CN1CCN(C)C1c1cccc(C2N(C)CCN2C)c1,> 100,–
CC(=O)OCCOCBr,> 100,–
O=C1c2ccccc2-c2c1c1ccccc1c(=O)n2CCNCCCNCCn1c2c(c3ccccc3c1=O)C(=O)c1ccccc1-2,0.331,0.0461
CC(O)CN1C(=O)NC(Cc2ccccc2)C1=O (stereo not drawn),> 100,–
O=C(c1ccccc1)[C@H]1Nc2cnccc2C2c3ccccc3CC21 (stereo partly drawn),3.55,–
Cn1c(N)nc2c(nc(OCc3ccccc3)n2C2OC(CO)C(O)C2O)c1=O (stereo not drawn),> 100,–
CN(C)c1nc(-c2cccs2)n2nc(-c3ccc(Cl)cc3)cc2n1,> 100,3.58
COc1cc(/C=C2\CC3C4CC=C5CC(N6CCCC6)CC[C@]5(C)C4CC[C@]3(C)C2OC(C)=O)ccc1OCCN1CCCC1 (stereo partly drawn),2.6,1.27
NC1=NC(=O)C(CC(=O)Nc2ccc([N+](=O)[O-])cc2[N+](=O)[O-])S1 (stereo not drawn),> 100,–
CC/C=C\C/C=C\C1CC(=O)NCCCNCCCCN1 (stereo not drawn),> 100,–
